Data taken from US6569638B1, “Method for screening compounds for the treatment of neoplasia” (Cell Pathways, Inc, priority 2000, dated 2003).

Experiments:
[1] = tested on: JNK1 in SW480 colon cancer cells; assay: JNK1 immunoprecipitation in vitro kinase assay with GST-c-Jun(1-79); type: cell-based, human; conditions: SW480 cells, one hour; sulindac sulfide 50-500 μM, exisulind 100-600 μM, Compound A 0.1-5 μM, Compound B 1-50 μM
Method: The cells were lysed, JNK1 immunoprecipitated with an anti-JNK1 antibody, and the immunoprecipitate (“IP”) assayed for in vitro kinase activity with GST-c-Jun(1-79) as the substrate. The experiments were repeated three times with similar results. Fold activation was measured using a Phosphor Imager.
FIG. 1B: SW480 cells were treated with Compound A (1 μM) for the indicated time periods and in vitro JNK1 kinase activity was determined as described above.
FIG. 2A SW480 cells were treated with either DMSO (−) or Compound A, 0.1 μM; dbcGMP, 500 μM; YC-1, 50 μM; MY-5445, 50 μM; dipyridamole, 10 μM or dbcAMP, 500 μM for one hour. The cells were lysed, JNK1 immunoprecipitated, and the IP assayed for in vitro kinase activity as described in FIG. 1A.
FIG. 2B SW480 cells were pre-treated with either DMSO, KT5720 (2 μM) or Rp-8-pCPT-cGMPS (2 μM) for 2 hours and then treated with Compound B (0, 1 or 10 μM) for one hour. The cells were lysed and assayed for JNK1 activation in the IP as described above.
These concentrations were chosen since they provided optimal induction of apoptosis. Endogenous JNK1 was immunoprecipitated with anti-JNK1 antibody and in vitro kinase assays were performed with GST-c-Jun(1-79) as the substrate. […]
However, the precise role of PKG in signal transduction pathways is not known. […] As a control, KT5720 was used as a protein kinase A (“PKA”)-specific inhibitor. SW480 cells were treated with either DMSO, KT5720 (2 μM) or Rp-8-pCPT-cGMPS (2 μM) for 2 hours and then treated with either DMSO or Compound B (1 or 10 μM) for one hour. Cell extracts were collected and assayed for JNK1 activation.

caspase-3 in SW480 cells = assay: Caspase-3 activity with Ac-DEVD-AFC substrate; type: cell-based, human; conditions: 24 hours, sulindac sulfide 200 μM, exisulind 600 μM, Compound A 1 μM, Compound B 10 μM
Method: The cells were lysed and the extracts assayed for caspase-3 activity using Ac-DEVD-AFC as the substrate, in the presence or absence of the caspase-3 inhibitor Ac-DEVD-CHO. Caspase-3 activity was calculated by subtracting the AFC fluorescence (excitation; 400 nm, emission; 505 nm) in the presence of Ac-DEVD-CHO from the AFC fluorescence in the absence of Ac-DEVD-CHO.
Protein extracts were then prepared and caspase-3 activity was measured with Ac-DEVD-AFC as the substrate, in the presence or absence of the caspase-3 inhibitor Ac-DEVD-CHO. […] Similar findings were obtained with HCT116 and HT29 cells (data not shown).

28-day study in rats = type: in vivo
[2] = Single, escalating dose human safety study; type: in vivo; conditions: oral
[3] = tested on: panel of cultured human cell lines; assay: Neutral red growth inhibition, panel of cultured human cell lines; type: cell-based; conditions: five days continuous treatment, read-out: GI50 calculated for all cell lines
Method: Compound B's activity is not confined to activity against colon cancer cell lines or animal models of colon cancer. It has a broad range of anti-neoplastic effects in various neoplastic cell lines. Various types of human cancer cell lines were propagated under sterile conditions in RPMI 1640 medium with 10% fetal bovine serum, 2 mM L-glutamine and sodium bicarbonate. To determine growth inhibitory effects of Compound B, cells were seeded in 96-well plates at a density of 1000 cells per well. Twenty-four hours after plating, the cells were dosed with various concentrations of the free base of Compound B solubilized in DMSO (final concentration 0.1%). The effect of the drug on tumor cell growth was determined using the neutral red cytotoxicity assay following five days of continuous treatment. Neutral red is a dye that is selectively taken up by viable cells by an ATP-dependent transport mechanism.

[4] = molecular target: T1, GST-cGB-PDE5 fusion protein (cGMP binding sites of human PDE5A) (Homo sapiens, UniProt O76074); assay: cGMP binding assay (3H-cGMP competition); conditions: 3H-cGMP 2 μM, 22° C., 1 hour
T1 construct: made in house; host or cells: E. coli BL21 (DE3)
T1 sequence (O76074 46-539 limits assumed): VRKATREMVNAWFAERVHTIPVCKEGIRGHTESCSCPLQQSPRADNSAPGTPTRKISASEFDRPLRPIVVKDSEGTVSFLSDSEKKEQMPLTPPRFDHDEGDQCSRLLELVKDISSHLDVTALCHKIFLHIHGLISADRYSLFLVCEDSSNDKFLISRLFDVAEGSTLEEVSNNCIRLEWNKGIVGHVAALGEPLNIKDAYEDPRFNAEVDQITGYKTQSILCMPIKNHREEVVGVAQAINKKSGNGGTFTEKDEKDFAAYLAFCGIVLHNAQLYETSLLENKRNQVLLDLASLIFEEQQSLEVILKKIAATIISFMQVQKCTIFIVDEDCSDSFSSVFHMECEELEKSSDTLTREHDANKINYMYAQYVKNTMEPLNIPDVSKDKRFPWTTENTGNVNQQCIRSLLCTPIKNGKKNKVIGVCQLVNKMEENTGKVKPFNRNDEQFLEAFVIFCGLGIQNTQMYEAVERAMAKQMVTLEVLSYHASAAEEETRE

[5] = Seven-day dose-range finding study in rats; conditions: seven days
[6] = tested on: PKG in HCT116 colon cancer cells; assay: PKG assay of drug-treated cell lysates; type: cell-based, human; conditions: HCT116 cells (β-catenin mutation, no APC mutation)
Text: To test the effect of cGMP-specific PDE inhibition on neoplasia containing the β-catenin mutation, HCT116 colon cancer cells were employed. HCT116 is known to contain the β-catenin mutation, but is known not to contain the APC mutation.
The same procedure is used to grow the HCT116 cells as is used in the SW480 procedure described above. In this experiment, only exisulind and controls were used.

[7] = tested on: adenomatous polyposis coli polyps; assay: Clinical prevention trial of polyp formation in APC patients; type: in vivo, human
Text: The first clinical trial involved patients with APC using exisulind. In that study, each patient had already had his/her colon removed, except for a small section of colon adjacent the rectum (where the small intestine was attached) to preserve rectal function. However, such a patient commonly forms polyps in the small remaining colonic section, which polyps require periodic removal (e.g., by electrocautery).
That trial where exisulind was selected was a prevention trial designed to evaluate the anti-neoplastic characteristics of the drug by comparing the cumulative number of new polyps formed over twelve months by the drug and placebo groups. Eligible patients were those who form between 9 and 44 polyps per year. Patients were fully ablated (had all polyps removed) at the start of the study, at the end of 6 months and at the end of 12 months. The study enrolled thirty-four eligible patients. […] Based on the median number of polyps produced in the first six months of the study, patients treated with exisulind developed approximately one-third the number of polyps as patients treated with placebo (median values 9 polyps/year and 26 polyps/year, respectively; p=0.013). […]

Row | Compound | JNK1 activation [1] | caspase-3 activation (caspase-3 in SW480 cells) | liver weights (28-day study in rats; 28 days, 2000 mg/kg/day) | thyroid weights (28-day study in rats; 28 days, 2000 mg/kg/day) | clinical observations (28-day study in rats; 28 days, 50, 500 and 2000 mg/kg/day) | side effects [2] | GI50 [3] | competition with cGMP for the cGMP binding sites of GST-cGB-PDE5 [4] | signs of toxicity ([5]; 50 mg/kg/day) | treatment-related effects ([5]; 500 mg/kg/day) | treatment-related effects ([5]; 2000 mg/kg/day) | PKG activity relative to control [6] | median number of polyps ([7]; entire 12 months of the study) | median number of polyps ([7]; first six months of the study)
1 | CC1=C(CC(=O)NCc2ccccc2)c2cc(F)ccc2/C1=C\c1ccncc1.Cl [Compound B, (Z)-5-fluoro-2-methyl-(4-pyridylidene)-3-(N-benzyl)indenylacetamide hydrochloride] | activated JNK1 | led to activation of caspase-3 | statistically significant increase in liver weights | statistically significant increases in thyroid weights | no abnormal clinical observations attributed to Compound B | no significant side effects at any dose | 1000 to 2000 nM | None of the PDE5 inhibitors showed any competition with cGMP | no observable signs of toxicity | an increase in absolute and relative liver weights in female rats | labored breathing and/or abnormal respiratory sounds, decreased weights gains and food consumption in male rats, and increased liver weights in female rats | – | – | –
2 | CC1=C(CC(=O)O)c2cc(F)ccc2/C1=C\c1ccc(S(C)(=O)=O)cc1 [exisulind, 5-fluoro-2-methyl-1-(p-methylsulfonylbenzylidene)-3-indenylacetic acid] | activated JNK1 | led to activation of caspase-3 | – | – | – | – | – | None of the PDE5 inhibitors showed any competition with cGMP | – | – | – | phosphorylated to a greater extent than the corresponding controls | 18 polyps/year | 9 polyps/year
